# Assay results from ChEMBL document CHEMBL5137086, “Discovery of 1-(Hetero)aryl-β-carboline Derivatives as IDO1/TDO Dual Inhibitors with Antidepressant Activity” (J Med Chem, 2022).
# Calls of active or inactive are those of the source. No cut-off for these calls is given here.
# Legend:
# [1] = Acute toxicity in mouse assessed as pathological changes in liver at 30 mg/kg, ip administered once daily for 20 days by hematoxyin-eosin staining based analysis; format: organism-based; details: in vivo, 480 h, time 20 day
# [2] = Acute toxicity in mouse assessed as pathological changes in lung at 10 to 20 mg/kg, ip administered once daily for 20 days by hematoxyin-eosin staining based analysis; format: organism-based; details: in vivo, 480 h, dose 10-20 mg/kg, time 20 day
# Mus musculus [3] = test: Antiinflammatory activity in LPS induced mouse assessed as rescue of increase in TNF-alpha expression in activated microglia at 20 mg/kg, ip pretreated with compound administered once daily for 2 days followed by LPS injection; format: functional, organism-based; details: time 2.0 day
# [4] = Bioavailability in C57BL/6J mouse at 20 mg/kg, […] measured up to 24 hrs by LC-MS/MS analysis; format: ADME, organism-based; details: in vivo
# Mus musculus [5] = test: Antidepressant activity in LPS induced mouse model assessed as rescue of decrease in immobility time at 20 mg/kg, ip pretreated with compound administered once daily for 2 days followed by LPS injection by forced swim test; format: functional, organism-based; details: time 2.0 day
# Mus musculus [6] = test: Antiinflammatory activity in LPS induced mouse assessed as reduction in iNOS expression in hippocampus at 20 mg/kg, ip pretreated with compound administered once daily for 2 days followed by LPS injection by qPCR analysis; format: functional, organism-based; details: time 2.0 day
# [7] = MRT (0 to infinity) in C57BL/6J mouse at 20 mg/kg, iv measured up to 24 hrs by LC-MS/MS analysis; format: ADME, organism-based; details: in vivo
# [8] = Acute toxicity in mouse assessed as pathological changes in kidney at 10 to 20 mg/kg, ip administered once daily for 20 days by hematoxyin-eosin staining based analysis; format: organism-based; details: in vivo, 480 h, dose 10-20 mg/kg, time 20 day
# [9] = Acute toxicity in mouse assessed as reduction in body weight at 30 mg/kg, ip administered once daily and measured every day for 20 days; format: organism-based; details: in vivo, 480 h, time 20 day
# [10] = molecular target: T1, Tryptophan 2,3-dioxygenase (Homo sapiens, UniProt P48775); test: Inhibition of TDO (unknown origin) assessed as reduction in N-formylkynurenine formation using L-tryptophan as substrate at 50 uM incubated for 75 mins by UV absorbance based analysis relative to control
# Target sequence in this assay (P48775 whole entry, looked up): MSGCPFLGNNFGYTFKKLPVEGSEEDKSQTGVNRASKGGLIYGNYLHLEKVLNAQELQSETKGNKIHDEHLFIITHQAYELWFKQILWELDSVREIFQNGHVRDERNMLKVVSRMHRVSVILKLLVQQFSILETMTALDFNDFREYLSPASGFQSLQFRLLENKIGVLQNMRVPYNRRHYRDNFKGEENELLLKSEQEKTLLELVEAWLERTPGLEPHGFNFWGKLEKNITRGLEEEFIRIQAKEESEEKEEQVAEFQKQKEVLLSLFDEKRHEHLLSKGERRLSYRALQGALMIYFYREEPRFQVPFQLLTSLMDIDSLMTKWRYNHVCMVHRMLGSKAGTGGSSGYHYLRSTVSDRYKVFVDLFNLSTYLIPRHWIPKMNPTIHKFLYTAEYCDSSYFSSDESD
# [11] = molecular target: T1, Tryptophan 2,3-dioxygenase; test: Inhibition of TDO (unknown origin) assessed as reduction in N-formylkynurenine formation using L-tryptophan as substrate incubated for 75 mins by UV absorbance based analysis
# Target sequence in this assay (P48775 whole entry): as the sequence (P48775 whole entry, looked up) above
# [12] = Cmax in C57BL/6J mouse at 20 mg/kg, iv measured up to 24 hrs by LC-MS/MS analysis; format: ADME, organism-based; set-up: time < 24 hrs, dose 20 mg/kg, route iv; details: in vivo
# [13] = Acute toxicity in mouse assessed as pathological changes in spleen at 10 to 20 mg/kg, ip administered once daily for 20 days by hematoxyin-eosin staining based analysis; format: organism-based; details: in vivo, 480 h, dose 10-20 mg/kg, time 20 day
# Mus musculus [14] = test: Antidepressant activity in LPS induced mouse model assessed as rescue of decrease in immobility time at 20 mg/kg, ip pretreated with compound administered once daily for 2 days followed by LPS injection by tail suspension test; format: functional, organism-based; details: time 2.0 day
# [15] = MRT (0 to infinity) in C57BL/6J mouse at 20 mg/kg, ip measured up to 24 hrs by LC-MS/MS analysis; format: ADME, organism-based; details: in vivo
# BV-2 [16] = test: Antiinflammatory activity in LPS stimulated mouse BV-2 cells assessed as reduction in TNF-alpha expression at 0.5 to 2 uM pretreated with compound for 1 hr followed by LPS stimulation and measured after 24 hrs by qRT-PCR analysis; format: functional, cell-based; details: dose 0.5-2 µM, time 25.0 hrs
# [17] = AUC (0 to infinity) in C57BL/6J mouse at 20 mg/kg, ip measured up to 24 hrs by LC-MS/MS analysis; format: ADME, organism-based; set-up: dose 20 mg/kg, time < 24 hrs, route ip; details: in vivo
# Mus musculus [18] = test: Antidepressant activity in LPS induced mouse model assessed as suppression of microglia activation in hippocampus at 20 mg/kg, ip pretreated with compound administered once daily for 2 days followed by LPS injection; format: functional, organism-based; details: time 2.0 day
# BV-2 [19] = test: Antiinflammatory activity in LPS stimulated mouse BV-2 cells assessed as decrease in IDO1 expression pretreated with compound for 1 hr followed by LPS stimulation and measured after 24 hrs; format: functional, cell-based; details: dose 0.25-2 µM, time 25.0 hrs, DDE = dose-dependent effect
# Mus musculus [20] = test: Antiinflammatory activity in LPS induced mouse assessed as reduction in TNF-alpha expression in hippocampus at 20 mg/kg, ip pretreated with compound administered once daily for 2 days followed by LPS injection by qPCR analysis; format: functional, organism-based; details: time 2.0 day
# [21] = molecular target: T2, Indoleamine 2,3-dioxygenase 1 (Homo sapiens, UniProt P14902); test: Inhibition of IDO1 (unknown origin) assessed as reduction in kynurenine production using L-tryptophan as substrate at 50 uM incubated for 1 hr by absorbance based microplate reader analysis relative to control
# Target sequence in this assay (P14902 whole entry, looked up): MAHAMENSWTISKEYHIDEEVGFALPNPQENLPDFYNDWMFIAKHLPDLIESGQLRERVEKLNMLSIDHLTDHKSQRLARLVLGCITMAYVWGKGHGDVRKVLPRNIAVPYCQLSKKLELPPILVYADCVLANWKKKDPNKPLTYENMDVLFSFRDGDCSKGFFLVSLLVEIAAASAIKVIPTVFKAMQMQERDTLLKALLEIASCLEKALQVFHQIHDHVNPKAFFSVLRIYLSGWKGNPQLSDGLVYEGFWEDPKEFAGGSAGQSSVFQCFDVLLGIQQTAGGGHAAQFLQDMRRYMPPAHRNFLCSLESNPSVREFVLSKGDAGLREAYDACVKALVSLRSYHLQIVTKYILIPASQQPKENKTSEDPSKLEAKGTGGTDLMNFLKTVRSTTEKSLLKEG
# [22] = Half life in C57BL/6J mouse at 20 mg/kg, iv measured up to 24 hrs by LC-MS/MS analysis; format: ADME, organism-based; details: in vivo
# [23] = Half life in C57BL/6J mouse at 20 mg/kg, ip measured up to 24 hrs by LC-MS/MS analysis; format: ADME, organism-based; details: in vivo
# [24] = Tmax in C57BL/6J mouse at 20 mg/kg, iv measured up to 24 hrs by LC-MS/MS analysis; format: ADME, organism-based; details: in vivo
# [25] = Acute toxicity in mouse assessed as pathological changes in liver at 10 to 20 mg/kg, ip administered once daily for 20 days by hematoxyin-eosin staining based analysis; format: organism-based; details: in vivo, 480 h, dose 10-20 mg/kg, time 20 day
# [26] = molecular target: T2, Indoleamine 2,3-dioxygenase 1; test: Inhibition of IDO1 (unknown origin) assessed as reduction in kynurenine production using L-tryptophan as substrate incubated for 1 hr by absorbance based microplate reader analysis
# Target sequence in this assay (P14902 whole entry): as the sequence (P14902 whole entry, looked up) above
# [27] = AUC (0 to 24 hrs) in C57BL/6J mouse at 20 mg/kg, iv measured up to 24 hrs by LC-MS/MS analysis; format: ADME, organism-based; set-up: dose 20 mg/kg, time < 24 hrs, route iv; details: in vivo
# [28] = AUC (0 to 24 hrs) in C57BL/6J mouse at 20 mg/kg, ip measured up to 24 hrs by LC-MS/MS analysis; format: ADME, organism-based; set-up: dose 20 mg/kg, time < 24 hrs, route ip; details: in vivo
# [29] = MRT (0 to 24 hrs) in C57BL/6J mouse at 20 mg/kg, iv measured up to 24 hrs by LC-MS/MS analysis; format: ADME, organism-based; details: in vivo
# [30] = Acute toxicity in mouse assessed as change in body weight at 10 to 20 mg/kg, ip administered once daily and measured every day for 20 days; format: organism-based; details: in vivo, 480 h, dose 10-20 mg/kg, time 20 day
# [31] = AUC (0 to infinity) in C57BL/6J mouse at 20 mg/kg, iv measured up to 24 hrs by LC-MS/MS analysis; format: ADME, organism-based; set-up: dose 20 mg/kg, time < 24 hrs, route iv; details: in vivo
# Mus musculus [32] = test: Antiinflammatory activity in LPS induced mouse assessed as reduction in IL-1beta expression in hippocampus at 20 mg/kg, ip pretreated with compound administered once daily for 2 days followed by LPS injection by qPCR analysis; format: functional, organism-based; details: time 2.0 day
# [33] = MRT (0 to 24 hrs) in C57BL/6J mouse at 20 mg/kg, ip measured up to 24 hrs by LC-MS/MS analysis; format: ADME, organism-based; details: in vivo
# [34] = Cmax in C57BL/6J mouse at 20 mg/kg, ip measured up to 24 hrs by LC-MS/MS analysis; format: ADME, organism-based; set-up: dose 20 mg/kg, time < 24 hrs, route ip; details: in vivo
# BV-2 [35] = test: Antiinflammatory activity in LPS stimulated mouse BV-2 cells assessed as reduction in iNOS expression at 0.5 to 2 uM pretreated with compound for 1 hr followed by LPS stimulation and measured after 24 hrs by qRT-PCR analysis; format: functional, cell-based; details: dose 0.5-2 µM, time 25.0 hrs
structure (smiles),measurement,setting,value
c1ccc2c(c1)[nH]c1c(-c3c[nH]cn3)nccc12,Activity,[1],Toxic
same,Activity,[2],Non-Toxic
same,Activity,Mus musculus [3],Active
same,bioavailability,[4],52.5%
same,Activity,Mus musculus [5],Active
same,Activity,Mus musculus [6],Active
same,MRT inf,[7],1.85 h
same,Activity,[8],Non-Toxic
same,Activity,[9],Toxic
same,inhibition,[10],92%
same,IC50,[11],1.15 µM
same,Cmax,[12],5.54 µg/mL
same,Activity,[13],Non-Toxic
same,Activity,Mus musculus [14],Active
same,MRT inf,[15],1.04 h
same,Activity,BV-2 [16],Active
same,AUC(0-inf),[17],4.46 µg·h/mL
same,Activity,Mus musculus [18],Active
same,Activity,BV-2 [19],Dde
same,Activity,Mus musculus [20],Active
same,inhibition,[21],98%
same,half-life,[22],2.31 h
same,half-life,[23],0.77 h
same,Tmax,[24],0.25 h
same,Activity,[25],Non-Toxic
same,IC50,[26],3.53 µM
same,AUC(0-t) at 24 h,[27],8.55 µg·h/mL
same,AUC(0-t) at 24 h,[28],4.49 µg·h/mL
same,MRT last at 24 h,[29],1.81 h
same,Activity,[30],Non-Toxic
same,AUC(0-inf),[31],8.56 µg·h/mL
same,Activity,Mus musculus [32],Active
same,MRT last at 24 h,[33],1.03 h
same,Cmax,[34],3.88 µg/mL
same,Activity,BV-2 [35],Active
